System: d-IBS
Test: Study of rifaximin BID doses vs placebo in subjects with d-IBS: adequate relief of IBS symptoms and bloating
Assay type: in vivo, human
Conditions: for Percentage of subjects with adequate relief of IBS symptoms / Percentage of subjects with adequate relief of bloating symptom: RFX 550 mg BID 14 d, at least 2 of final 3 weeks of treatment phase (Weeks 1-4); for Adequate relief of bloating, post treatment, Failures / Adequate relief of bloating, post treatment, Success / Adequate relief of bloating, post treatment, Failure: RFX 550 2w (N = 54); for Patients with adequate relief of bloating / Patients with adequate relief of global IBS symptoms: 550 mg BID 14 d
Experimental: This example relates to a study of rifaximin in subjects with d-IBS. […] There were two measures of efficacy assessed. Subjects were questioned on the relief of overall IBS symptoms and bloating. […] The analyses defined success as a “yes” response to questions regarding adequate relief.
All subpopulations in the study responded to therapy. Baseline severity was determined using 7-point Lickert scales during screening for Abdominal Pain/Discomfort and Bloating, and the number, type (normal, hard, loose) and urgency of bowel movements.
Duration of effect was assessed in a follow-up period. Subjects that responded in the 4 week treatment period were followed for an additional 3 months.
The effect of treatment on the percentage of subjects who reported adequate relief of IBS and bloating symptoms for at least two of the final three weeks during the treatment phase (Weeks 1 to 4) is shown in Tables 5-7 and FIGS. 4-6 below.
The study assessed the effect over 12 weeks of follow-up on long-term adequate relief. Subjects who had adequate relief by Week 4 and remained symptom-free at Week 5 were followed during the post-treatment phase and shown in FIGS. 1 and 2. Superiority to placebo was maintained during the 12 weeks post-treatment follow-up. Results for IBS symptoms were RFX 550 mg BID 62.3% versus placebo 49.2%, and RFX 550 mg BID 59.3% versus 50.9% for placebo for the symptom of bloating through week 16. In assessing the follow-up data, there was statistical significance (p<0.05) of bloating and IBS symptoms for RFX 550 mg BID versus placebo.
Two measures of efficacy were assessed independently. The first was the proportion of subjects who provided a ‘yes’ response to the weekly SGA question: “In the past 7 days, have you had adequate relief of your IBS symptoms? (yes/no)”. The second endpoint was the proportion of subjects who provide a ‘yes’ response to the weekly individual symptom question: “In the past 7 days, have you had adequate relief of your symptom of bloating? (yes/no)”. Durability was based on the proportion of subjects that had adequate relief over the entire treatment phase.
It is reported herein that the severity of baseline symptoms of abdominal pain and bloating influenced the response to rifaximin treatment. The co-primary endpoints in this analysis assessed weekly yes/no responses to questions regarding adequate relief of global IBS symptoms and IBS-associated bloating. Severity of baseline IBS symptoms was evaluated as a potential confounder of clinical response and was categorized as mild/moderate or severe based on a mean score of ≤4 vs. >4 (on a 7-point scale) for bloating and abdominal pain.
The Weekly yes/no responses to questions regarding adequate relief of global IBS symptoms and IBS-associated bloating were assessed. Clinical response was defined as adequate relief for 2 of the final 3 treatment weeks (wk 2, 3, or 4). Severity of baseline IBS symptoms was evaluated as a potential confounder of clinical response and was categorized as mild/moderate or severe based on a mean score of ≤4 versus >4 (on a 7-point scale (0=not bothersome; 6=very bothersome)) for bloating and abdominal pain.

[1] = RFX 550 mg BID, responders followed through week 16
[2] = patients with mild/moderate abdominal pain at baseline
[3] = patients with mild/moderate bloating at baseline

Compound: CO[C@H]1/C=C/O[C@@]2(C)Oc3c(C)c(O)c4c(O)c(c5c(nc6cc(C)ccn65)c4c3C2=O)NC(=O)/C(C)=C\C=C\[C@H](C)[C@H](O)[C@@H](C)[C@@H](O)[C@@H](C)[C@H](OC(C)=O)[C@@H]1C [Rifaximin, (2S,16Z,18E,20S,21S,22R,23R,24R,25S,26S,27S,28E)-5,6,21,23,25 Pentahydroxy-27-methoxy-2,4,11,16,20,22,24,26-octamethyl-2,7-(epoxypentadeca-(1,11,13)trienimino) benzofuro (4,5-e) pyrido(1,2-a) benzimidazole-1,15(2H)-dione,25-acetate]
- Treatment effect, Bloating (Age <65): 6.8%
- Treatment effect, IBS Sx (Age <65): 6.9%
- Treatment effect, Bloating (Age ≥65): 3.2%
- Treatment effect, IBS Sx (Age ≥65): 19.1%
- Treatment effect, Bloating (Diabetes History N): 7.4%
- Treatment effect, IBS Sx (Diabetes History N): 9.5%
- Treatment effect, Bloating (Diabetes History Y): −5.6%
- Treatment effect, IBS Sx (Diabetes History Y): −12.7%
- Treatment effect, Bloating (Disease Duration 10-20 y): 11.7%
- Treatment effect, IBS Sx (Disease Duration 10-20 y): 20.1%
- Treatment effect, Bloating (Disease Duration >20 y): 35.1%
- Treatment effect, IBS Sx (Disease Duration >20 y): 46.6%
- Treatment effect, Bloating (Disease Duration ≤10 y): 2.8%
- Treatment effect, IBS Sx (Disease Duration ≤10 y): 1.8%
- Adequate relief of IBS symptoms at end of treatment phase, Failure (Female, RFX 275 2w): 46 (56.8%) n (%)
- Adequate relief of IBS symptoms at end of treatment phase, Success (Female, RFX 275 2w): 35 (43.2%) n (%)
- Adequate relief of bloating at end of treatment phase, Failure (Female, RFX 275 2w): 52 (64.2%) n (%)
- Adequate relief of bloating at end of treatment phase, Success (Female, RFX 275 2w): 29 (35.8%) n (%)
- Adequate relief of IBS symptoms at end of treatment phase, Failure (Female, RFX 550 2w): 66 (48.2%) n (%)
- Adequate relief of IBS symptoms at end of treatment phase, Success (Female, RFX 550 2w): 71 (51.8%) n (%)
- Adequate relief of bloating at end of treatment phase, Failure (Female, RFX 550 2w): 74 (54.0%) n (%)
- Adequate relief of bloating at end of treatment phase, Success (Female, RFX 550 2w): 63 (46.0%) n (%)
- Adequate relief of IBS symptoms at end of treatment phase, Failure (Female, RFX 550 4w): 42 (55.3%) n (%)
- Adequate relief of IBS symptoms at end of treatment phase, Success (Female, RFX 550 4w): 34 (44.7%) n (%)
- Adequate relief of bloating at end of treatment phase, Failure (Female, RFX 550 4w): 44 (57.9%) n (%)
- Adequate relief of bloating at end of treatment phase, Success (Female, RFX 550 4w): 32 (42.1%) n (%)
- Adequate relief of IBS symptoms at end of treatment phase, Failure (Female, RFX 1100 2w): 44 (60.3%) n (%)
- Adequate relief of IBS symptoms at end of treatment phase, Success (Female, RFX 1100 2w): 29 (39.7%) n (%)
- Adequate relief of bloating at end of treatment phase, Failure (Female, RFX 1100 2w): 45 (61.6%) n (%)
- Adequate relief of bloating at end of treatment phase, Success (Female, RFX 1100 2w): 28 (38.4%) n (%)
- Treatment effect, Bloating (Gender F): 3.9%
- Treatment effect, IBS Sx (Gender F): 3.5%
- Treatment effect, Bloating (Gender M): 13.6%
- Treatment effect, IBS Sx (Gender M): 21%
- Adequate relief of IBS symptoms at end of treatment phase, Failure (Male, RFX 275 2w): 9 (64.3%) n (%)
- Adequate relief of IBS symptoms at end of treatment phase, Success (Male, RFX 275 2w): 5 (35.7%) n (%)
- Adequate relief of bloating at end of treatment phase, Failure (Male, RFX 275 2w): 8 (57.1%) n (%)
- Adequate relief of bloating at end of treatment phase, Success (Male, RFX 275 2w): 6 (42.9%) n (%)
- Adequate relief of IBS symptoms at end of treatment phase, Failure (Male, RFX 550 2w): 25 (46.3%) n (%)
- Adequate relief of IBS symptoms at end of treatment phase, Success (Male, RFX 550 2w): 29 (53.7%) n (%)
- Adequate relief of bloating at end of treatment phase, Failure (Male, RFX 550 2w): 29 (53.7%) n (%)
- Adequate relief of bloating at end of treatment phase, Success (Male, RFX 550 2w): 25 (46.3%) n (%)
- Adequate relief of IBS symptoms at end of treatment phase, Failure (Male, RFX 550 4w): 15 (68.2%) n (%)
- Adequate relief of IBS symptoms at end of treatment phase, Success (Male, RFX 550 4w): 7 (31.8%) n (%)
- Adequate relief of bloating at end of treatment phase, Failure (Male, RFX 550 4w): 16 (72.7%) n (%)
- Adequate relief of bloating at end of treatment phase, Success (Male, RFX 550 4w): 6 (27.3%) n (%)
- Adequate relief of IBS symptoms at end of treatment phase, Failure (Male, RFX 1100 2w): 14 (53.8%) n (%)
- Adequate relief of IBS symptoms at end of treatment phase, Success (Male, RFX 1100 2w): 12 (46.2%) n (%)
- Adequate relief of bloating at end of treatment phase, Failure (Male, RFX 1100 2w): 16 (61.5%) n (%)
- Adequate relief of bloating at end of treatment phase, Success (Male, RFX 1100 2w): 10 (38.5%) n (%)
- Percentage of subjects with adequate relief of IBS symptoms (ITT): 52%
- Percentage of subjects with adequate relief of bloating symptom (ITT): 46%
- Percentage of subjects with adequate relief of IBS symptoms (ITT, listed as RFX): 52.4%
- Percentage of subjects with adequate relief of bloating symptom (ITT, listed as RFX): 46.1%
- Percentage of subjects with 0 weeks with adequate relief of IBS symptoms (RFX 550 mg BID, ITT): 33%
- Percentage of subjects with 0 weeks with adequate relief of bloating symptoms (RFX 550 mg BID, ITT): 35%
- Percentage of subjects with 1 week with adequate relief of IBS symptoms (RFX 550 mg BID, ITT): 11%
- Percentage of subjects with 1 week with adequate relief of bloating symptoms (RFX 550 mg BID, ITT): 14%
- Percentage of subjects with 2 weeks with adequate relief of IBS symptoms (RFX 550 mg BID, ITT): 15%
- Percentage of subjects with 2 weeks with adequate relief of bloating symptoms (RFX 550 mg BID, ITT): 15%
- Percentage of subjects with 3 weeks with adequate relief of IBS symptoms (RFX 550 mg BID, ITT): 23%
- Percentage of subjects with 3 weeks with adequate relief of bloating symptoms (RFX 550 mg BID, ITT): 20%
- Percentage of subjects with 4 weeks with adequate relief of IBS symptoms (RFX 550 mg BID, ITT): 16%
- Percentage of subjects with 4 weeks with adequate relief of bloating symptoms (RFX 550 mg BID, ITT): 14%
- Long-term adequate relief of IBS symptoms in post-treatment follow-up [1]: 62.3%
- Long-term adequate relief of the symptom of bloating in post-treatment follow-up [1]: 59.3%
- Adequate relief of bloating, post treatment, Failures (Week 6): 5 (9.3%) n (%)
- Adequate relief of bloating, post treatment, Success (Week 6): 49 (90.7%) n (%)
- Adequate relief of bloating, post treatment, Failures (Week 7): 9 (16.7%) n (%)
- Adequate relief of bloating, post treatment, Success (Week 7): 45 (83.3%) n (%)
- Adequate relief of bloating, post treatment, Failures (Week 8): 7 (13.0%) n (%)
- Adequate relief of bloating, post treatment, Success (Week 8): 47 (87.0%) n (%)
- Adequate relief of bloating, post treatment, Failures (Week 9): 15 (27.8%) n (%)
- Adequate relief of bloating, post treatment, Success (Week 9): 39 (72.2%) n (%)
- Adequate relief of bloating, post treatment, Failures (Week 10): 15 (27.8%) n (%)
- Adequate relief of bloating, post treatment, Success (Week 10): 39 (72.2%) n (%)
- Adequate relief of bloating, post treatment, Failures (Week 11): 19 (35.2%) n (%)
- Adequate relief of bloating, post treatment, Success (Week 11): 35 (64.8%) n (%)
- Adequate relief of bloating, post treatment, Failure (Week 12): 18 (33.3%) n (%)
- Adequate relief of bloating, post treatment, Success (Week 12): 36 (66.7%) n (%)
- Adequate relief of bloating, post treatment, Failure (Week 13): 21 (38.9%) n (%)
- Adequate relief of bloating, post treatment, Success (Week 13): 33 (61.1%) n (%)
- Adequate relief of bloating, post treatment, Failure (Week 14): 20 (37.0%) n (%)
- Adequate relief of bloating, post treatment, Success (Week 14): 34 (63.0%) n (%)
- Adequate relief of bloating, post treatment, Failure (Week 15): 23 (42.6%) n (%)
- Adequate relief of bloating, post treatment, Success (Week 15): 31 (57.4%) n (%)
- Adequate relief of bloating, post treatment, Failure (Week 16): 22 (40.7%) n (%)
- Adequate relief of bloating, post treatment, Success (Week 16): 32 (59.3%) n (%)
- Treatment effect, Bloating (aIBS): 31.4%*, 31.4%
- Treatment effect, IBS Sx (aIBS): 31.4%*, 31.4%
- Treatment effect, Bloating (dIBS only): 4.5%
- Treatment effect, IBS Sx (dIBS only): 6.3%
- Patients with adequate relief of bloating [2]: 44%
- Patients with adequate relief of global IBS symptoms [2]: 50%
- Patients with adequate relief of bloating [3]: 47%
- Patients with adequate relief of global IBS symptoms [3]: 56%

— patent US10610522B2, “Methods for retreating irritable bowel syndrome (IBS)” (Salix Pharmaceuticals, Inc., priority 2014, dated 2020)
